For series [1], the target named is T1, FLT3D835Y (Homo sapiens, UniProt P36888, D835Y).
T1 construct: purchased Carna Biosciences
T1 sequence (P36888 27-993 D835Y): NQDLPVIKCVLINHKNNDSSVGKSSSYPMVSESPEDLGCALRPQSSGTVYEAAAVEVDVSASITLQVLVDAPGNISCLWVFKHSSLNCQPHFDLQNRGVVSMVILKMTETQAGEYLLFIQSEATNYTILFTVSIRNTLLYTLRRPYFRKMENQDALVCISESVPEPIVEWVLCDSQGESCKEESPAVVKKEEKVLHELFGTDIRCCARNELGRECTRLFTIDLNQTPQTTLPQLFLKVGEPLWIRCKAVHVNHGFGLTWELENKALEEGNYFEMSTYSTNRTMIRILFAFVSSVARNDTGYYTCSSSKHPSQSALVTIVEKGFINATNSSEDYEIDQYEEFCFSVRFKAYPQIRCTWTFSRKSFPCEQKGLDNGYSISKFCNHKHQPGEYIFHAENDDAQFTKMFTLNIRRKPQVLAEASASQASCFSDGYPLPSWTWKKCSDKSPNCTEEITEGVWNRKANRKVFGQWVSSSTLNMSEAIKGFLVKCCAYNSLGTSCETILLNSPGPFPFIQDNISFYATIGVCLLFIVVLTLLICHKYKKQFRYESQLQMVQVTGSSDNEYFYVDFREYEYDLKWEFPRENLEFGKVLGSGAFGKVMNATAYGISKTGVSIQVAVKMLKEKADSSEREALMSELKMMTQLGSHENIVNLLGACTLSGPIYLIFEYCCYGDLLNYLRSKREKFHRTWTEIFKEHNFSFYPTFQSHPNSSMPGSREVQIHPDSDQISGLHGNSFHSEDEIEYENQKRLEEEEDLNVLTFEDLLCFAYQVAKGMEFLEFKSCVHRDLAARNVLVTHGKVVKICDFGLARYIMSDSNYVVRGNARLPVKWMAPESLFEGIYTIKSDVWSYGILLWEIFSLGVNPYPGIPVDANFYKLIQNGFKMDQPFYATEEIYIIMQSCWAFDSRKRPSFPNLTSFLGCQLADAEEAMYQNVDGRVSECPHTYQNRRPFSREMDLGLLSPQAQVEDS
As to the kind of experiment: FLT3D835Y microfluidic kinase assay. It is filed as biochemical. How it is done:
Compounds were tested against FLT3, FLT3ITD and FLT3D835Y.
Assay Formats: FLT3 activity was determined in the reaction buffer 50 mM HEPES, 10 mM MgCl2 and 2 mM DTT by a microfluidic assay. The phosphorylation of a FAM labeled peptide substrate was monitored in the Caliper EZ Reader II (Perkin Elmer). The assay condition for each batch of enzyme (Carna Biosciences) was optimized to obtain 10% conversion rate of peptide substrate.
The test compounds were dissolved in DMSO to a stock concentration of 10 mM. 3-fold serially diluted compounds with top concentration of 5 μM were pre-incubated with FLT3, FLT3ITD or FLT3D835Y for 10 min at ambient temperature. The final DMSO concentration of assay mixture was 1%. […] The reaction was stopped by adding 50 mM EITA. The reaction time for FLT3, FLT3ITD and FLT3D8335Y was 30 min, 40 min and 40 min, respectively.
And the well without compound but with equivalent DMSO was defined as no inhibition. The percent inhibition was calculated by the following formula. % Inhibition=(Conversionmax−Conversionsample)/(Conversionmax−Conversionmin)*100 • Conversionmax means the conversion rate in the positive well without addition of compound • Conversionmin means the conversion rate in the well without addition of enzyme • Conversionsample means the conversion rate of test compounds
The dose-response (percent inhibition) curve was plotted and IC50 values were determined by GraphPad software.

Series [2] deals with T2, CYP2C9 (Homo sapiens, UniProt P11712).
T2 construct: 0.2 mg/mL human liver microsomes was pre-incubated in 180 μL reaction mixture; from tissue; host or cells: pooled human liver microsomes
The series is described as follows: CYPs inhibition in pooled human liver microsomes, probe substrate Diclofenac. It is filed as in vitro ADME. How it is done: (§1) The inhibitory potential of test articles in pooled human liver microsomes was evaluated by the method using a cocktail of CYP substrates. […] For the negative control well, the test articles was replaced with 20 μL reaction buffer. After 10 min of pre-incubation at 37° C., 20 μL 10 mM NADPH cofactor was added to the pre-reaction mixtures. After another 10 min incubation, the reaction was stopped by adding 400 μL of ice cold acetonitrile solution containing tolbutamide and labetalol served as internal standards. The incubation mixtures were centrifuged at 4000×g for 20 min, and then the supernatants were analyzed by LC-MS/MS after dilution. SigmaPlot was applied to plot % control activity versus the test compound concentrations, and for non-linear regression analysis of the data. IC50 values of test articles were determined using 3-parameter logistic equation.

Series [3] concerns the target T3, CYP2D6 (Homo sapiens, UniProt P10635).
T3 construct: 0.2 mg/mL human liver microsomes was pre-incubated in 180 μL reaction mixture; from tissue; host or cells: pooled human liver microsomes
As to the kind of experiment: CYPs inhibition in pooled human liver microsomes, probe substrate Dextromethorphan. The series is classed as in vitro ADME. How it is done: as §1

Series [4] in a line: Dog pharmacokinetic study (intravenous and oral). It is filed as in vivo. To be noted: plasma, Beagle dogs, oral, 5 mg/kg, solution. How it is done: Pharmacokinetic profile of test articles in rodent were evaluated in fasted male ICR mouse and Sprague-Dawley rats. […] Typically, mice were dosed with 2 mg/kg and 10 mg/kg by intravenous injection and oral gavage, respectively. Rats were dosed with 1 mg/kg and 5 mg/kg by intravenous injection and oral gavage, respectively. Beagle dogs were dosed with 1 mg/kg and 5 mg/kg by intravenous injection and oral gavage, respectively. After dosing, blood samples were collected at each time point. For IV injection group, time points were set at 5, 15, 30 min, and then 1, 2, 4, 8 and 24 hours after dosing. For oral gavage group, timepoints were set at 15, 30 m, and then 1, 2, 4, 8, and 24 hours. Blood was collected into appropriately labeled tubes containing K2EDTA as the anticoagulant. Plasma was obtained within 1 hours of blood collection by centrifugation at 8000×g and 4° C. for 6 minutes, and then stored at −20° C. until analyzed by LCMS/MS for quantification.

Molecules are shown by their SMILES. pIC50: −log10 of the molar value.

T2 sequence (P11712 whole entry): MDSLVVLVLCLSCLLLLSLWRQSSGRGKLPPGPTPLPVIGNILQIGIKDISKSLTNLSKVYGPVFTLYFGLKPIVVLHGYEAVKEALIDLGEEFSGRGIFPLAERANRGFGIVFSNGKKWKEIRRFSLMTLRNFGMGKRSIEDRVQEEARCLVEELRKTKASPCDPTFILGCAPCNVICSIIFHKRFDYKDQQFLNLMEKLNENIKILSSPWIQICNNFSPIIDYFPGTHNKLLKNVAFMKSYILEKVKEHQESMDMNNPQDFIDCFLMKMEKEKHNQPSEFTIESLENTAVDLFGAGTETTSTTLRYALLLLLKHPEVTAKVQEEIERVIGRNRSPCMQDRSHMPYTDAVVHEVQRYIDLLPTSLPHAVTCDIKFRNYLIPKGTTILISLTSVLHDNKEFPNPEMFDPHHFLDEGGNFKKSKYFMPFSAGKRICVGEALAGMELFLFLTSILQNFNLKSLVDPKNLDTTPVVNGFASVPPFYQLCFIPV
T3 sequence (P10635 whole entry): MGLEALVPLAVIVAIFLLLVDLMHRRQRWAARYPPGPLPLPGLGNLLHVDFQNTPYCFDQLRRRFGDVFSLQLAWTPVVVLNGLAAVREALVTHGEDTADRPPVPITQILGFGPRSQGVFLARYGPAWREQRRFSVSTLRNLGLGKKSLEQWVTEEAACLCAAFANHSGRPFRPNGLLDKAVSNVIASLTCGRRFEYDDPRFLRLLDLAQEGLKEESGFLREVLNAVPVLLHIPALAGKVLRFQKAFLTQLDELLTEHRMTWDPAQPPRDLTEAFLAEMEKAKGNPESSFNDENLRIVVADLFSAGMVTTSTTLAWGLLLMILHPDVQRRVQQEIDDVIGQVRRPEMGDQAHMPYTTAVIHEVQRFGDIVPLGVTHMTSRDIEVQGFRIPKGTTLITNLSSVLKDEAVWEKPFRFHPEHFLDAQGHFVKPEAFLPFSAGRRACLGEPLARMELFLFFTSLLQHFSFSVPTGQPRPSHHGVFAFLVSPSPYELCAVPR

Regarding `CCNC(=O)c1ccc(-c2nc(Nc3cnn(C)c3)ncc2C)cc1` [Example 222, N-ethyl-4-(5-methyl-2-((1-methyl-1H-pyrazol-4-yl)amino)pyrimidin-4-yl)benzamide], in series [1], the pIC50 was 5.36.

For `Cc1cnc(Nc2cnn(C3CC(C)(C)OC(C)(C)C3)c2)nc1-c1ccc(C(=O)NCC#N)cc1` [Example 113, N-(cyanomethyl)-4-(5-methyl-2-((1-(2,2,6,6-tetramethyltetrahydro-2H-pyran-4-yl)-1H-pyrazol-4-yl)amino)pyrimidin-4-yl)benzamide], the pIC50 in series [2] was 4.85; in series [3] it was 4.45.

In turn, `Cc1cnc(Nc2cnn(C3CCN(C(=O)CO)CC3)c2)nc1-c1ccc(C(=O)N[C@@H](C)C#N)cc1` [Example 119, (S)—N-(1-cyanoethyl)-4-(2-((1-(1-(2-hydroxyacetyl)piperidin-4-yl)-1H-pyrazol-4-yl)amino)-5-methylpyrimidin-4-yl)benzamide] showed a negative logarithm of the IC50 (pIC50) in series [2] of under 4.30. The compound also gave a pIC50 in series [3] of under 4.30. In addition, in series [4], the AUC turned out to be 93.6 ng·h/mL, the Cmax amounted to 37.9 ng/mL, the bioavailability was determined as 4.6% and the half-life was 1.66 h.

The compound `CC[C@@H](C#N)NC(=O)c1ccc(-c2nc(Nc3cnn(C4CCNCC4)c3)ncc2Cl)cc1` [Example 183, (S)-4-(5-chloro-2-((1-(piperidin-4-yl)-1H-pyrazol-4-yl)amino)pyrimidin-4-yl)-N-(1-cyanopropyl)benzamide] showed a pIC50 in series [2] of 5.50. This compound also had a pIC50 in series [3] of 4.38. For the same compound, in series [4], the AUC is 29.9 ng·h/mL, the Cmax turned out to be 5.63 ng/mL, the bioavailability was determined as 0.8% and the half-life is 3.34 h.

In series [2], `C[C@@H](C#N)NC(=O)c1ccc(-c2nc(Nc3cnn(C4CCNCC4)c3)ncc2Cl)cc1` [Example 165, (S)-4-(5-chloro-2-((1-(piperidin-4-yl)-1H-pyrazol-4-yl)amino)pyrimidin-4-yl)-N-(1-cyanoethyl)benzamide] had a pIC50 of 4.72. In addition, the pIC50 in series [3] was under 4.30. In series [4], this compound came in with an AUC of 27.9 ng·h/mL, a Cmax of 11 ng/mL and a bioavailability of 0.9%.

For `C[C@@H](C#N)NC(=O)c1ccc(-c2nc(Nc3cnn(C)c3)ncc2Cl)cc1` [Example 125, (S)-4-(5-chloro-2-((1-methyl-1H-pyrazol-4-yl)amino)pyrimidin-4-yl)-N-(1-cyanoethyl)benzamide], in series [1], the pIC50 is 7.36.

As to `CNC(=O)c1ccc(-c2nc(Nc3cnn(C)c3)ncc2C)cc1` [Example 10, N-Methyl-4-(5-methyl-2-((1-methyl-1H-pyrazol-4-yl)amino)pyrimidin-4-yl)benzamide], the pIC50 in series [1] was 5.69.

Regarding `C[C@@H](C#N)NC(=O)c1ccc(-c2nc(Nc3cnn(C4CCN(C)CC4)c3)ncc2Cl)cc1` [Example 43, (S)-4-(5-Chloro-2-((1-(1-methylpiperidin-4-yl)-1H-pyrazol-4-yl)amino)pyrimidin-4-yl)-N-(1-cyanoethyl)benzamide], the pIC50 in series [2] and in series [3] was under 4.30 in each case.

In series [1], `Cc1cnc(Nc2cnn(C)c2)nc1-c1ccc(C(=O)NC(C)C)cc1` [Example 223, N-isopropyl-4-(5-methyl-2-((1-methyl-1H-pyrazol-4-yl)amino)pyrimidin-4-yl)benzamide] had a pIC50 of 5.55.

Regarding `Cn1cc(Nc2ncc(Cl)c(-c3ccc(C(=O)NCC#N)cc3)n2)cn1` [Example 34, 4-(5-Chloro-2-((1-methyl-1H-pyrazol-4-yl)amino)pyrimidin-4-yl)-N-(cyanomethyl)benzamide], in series [1], the pIC50 is 7.81.

The compound `CC[C@@H](C#N)NC(=O)c1ccc(-c2nc(Nc3cnn(C4CC4)c3)ncc2Cl)cc1` [Example 61, (S)-4-(5-chloro-2-((1-cyclopropyl-1H-pyrazol-4-yl)amino)pyrimidin-4-yl)-N-(1-cyanopropyl)benzamide] showed a pIC50 in series [1] of 7.94.

`C[C@@H](C#N)NC(=O)c1ccc(-c2nc(Nc3cnn(C4CC4)c3)ncc2Cl)cc1` [Example 111, (S)-4-(5-Chloro-2-((1-cyclopropyl-1H-pyrazol-4-yl)amino)pyrimidin-4-yl)-N-(1-cyanoethyl)benzamide] had a pIC50 in series [1] of 7.92.

In turn, `CC[C@@H](C#N)NC(=O)c1ccc(-c2nc(Nc3cnn(C4CCN(C)CC4)c3)ncc2C)cc1` [Example 184, (S)—N-(1-Cyanopropyl)-4-(5-methyl-2-((1-(1-methylpiperidin-4-yl)-1H-pyrazol-4-yl)amino)pyrimidin-4-yl)benzamide] gave a pIC50 in series [2] of under 4.30. Moreover, in series [3], the pIC50 was under 4.30. In series [4], this compound gave an AUC of 527 ng·h/mL, a Cmax of 125 ng/mL, a bioavailability of 19.1% and a half-life of 3.15 h.

Turning to `Cc1cnc(Nc2cnn(CC#N)c2)nc1-c1ccc(C(=O)NCC#N)cc1` [Example 4, N-(Cyanomethyl)-4-(2-((1-(cyanomethyl)-1H-pyrazol-4-yl)amino)-5-methylpyrimidin-4-yl)benzamide], the negative-log IC50 (pIC50) in series [2] and in series [3] was under 4.30 in each case.

(Values after US12595253B2, “Benzamides of pyrazolylamino-pyrimidinyl derivatives, and compositions and methods thereof” (LYNK PHARMACEUTICALS CO. LTD., priority 2019, dated 2026).)
